Where two headings read alike, the source gives them in different places. Residues, ends and D or L forms follow the SMILES beside them. No end group written: not given here.
Key:
Format in all cases: cell-based
[1] = test system: Staphylococcus epidermidis [KCTC 1917]
Description: (§1) The MICs of the peptides were measured by the Clinical and Laboratory Standards Institute (CLSI) broth microdilution method, as outlined in a previous study.^[ [26], [27] ^]
(§2) Minimal Inhibitory Concentrations (MICs): Bacteria were grown to mid-logarithmic phase and diluted in Mueller-Hinton broth (MHB) (Difco). The bacterial suspension (1×10^6 CFU/well) was added to a 96-well microtiter plate along with a two-fold serial dilution of samples. The plate was incubated at 37 °C for 24 hours and the bacterial growth inhibition was assessed by measuring the optical density using an ELISA plate reader. The minimum inhibitory concentration (MIC) was defined as the lowest concentration of samples that prevented visible bacterial growth.

[2] = test system: Escherichia coli [KCTC 1682]
Description: as §1, §2

[3] = test system: Pseudomonas aeruginosa [KCTC 1637]
Description: as §1, §2

[4] = test system: Staphylococcus aureus [KCTC1621]
Description: as §1, §2

[5] = CLSI broth microdilution in MHB, 1×10^6 CFU/well, 37 °C, 24 h, optical density

NITDYNKKKVRLLPRFIFPLG-NH2 [LP13]
>128 µg/mL: Minimum inhibitory concentration (MIC), Staphylococcus epidermidis [KCTC 1917] ([1]; KCTC 1917, 24 h) | Minimum inhibitory concentration (MIC), Escherichia coli [KCTC 1682] ([2]; KCTC 1682, 24 h) | Minimum inhibitory concentration (MIC), Pseudomonas aeruginosa [KCTC 1637] ([3]; KCTC 1637, 24 h) | Minimum inhibitory concentration (MIC), Staphylococcus aureus [KCTC1621] ([4]; KCTC1621, 24 h)

LSKGGFKGKPERAMAHHLKNIRKKLSKSIMKS [LP6]
>128 µg/mL: Minimum inhibitory concentration (MIC), Staphylococcus epidermidis [KCTC 1917] ([1]; KCTC 1917, 24 h) | Minimum inhibitory concentration (MIC), Escherichia coli [KCTC 1682] ([2]; KCTC 1682, 24 h) | Minimum inhibitory concentration (MIC), Pseudomonas aeruginosa [KCTC 1637] ([3]; KCTC 1637, 24 h) | Minimum inhibitory concentration (MIC), Staphylococcus aureus [KCTC1621] ([4]; KCTC1621, 24 h)

KKLLKKLEKISKKKKKDKKRGRGSPMTSYAILYDGA [LP10]
>128 µg/mL: Minimum inhibitory concentration (MIC), Staphylococcus epidermidis [KCTC 1917] ([1]; KCTC 1917, 24 h) | Minimum inhibitory concentration (MIC), Escherichia coli [KCTC 1682] ([2]; KCTC 1682, 24 h) | Minimum inhibitory concentration (MIC), Pseudomonas aeruginosa [KCTC 1637] ([3]; KCTC 1637, 24 h) | Minimum inhibitory concentration (MIC), Staphylococcus aureus [KCTC1621] ([4]; KCTC1621, 24 h)

FGQKVNCILNFICYKYLRI LV [LP2, putative AMP predicted from the Hirudo nipponia transcriptome]
>128 µg/mL: Minimum inhibitory concentration (MIC), Staphylococcus epidermidis [KCTC 1917] [1, 5] | Minimum inhibitory concentration (MIC), Escherichia coli [KCTC 1682] [2, 5] | Minimum inhibitory concentration (MIC), Pseudomonas aeruginosa [KCTC 1637] [3, 5] | Minimum inhibitory concentration (MIC), Staphylococcus aureus [KCTC1621] [4, 5]

CC(C)C[C@H](NC(=O)[C@H](CS)NC(=O)[C@@H](NC(=O)CNC(=O)[C@H](CC(=O)O)NC(=O)[C@H](CCC(=O)O)NC(=O)[C@H](CCCCN)NC(=O)[C@H](CCCCN)NC(=O)[C@H](CS)NC(=O)[C@@H](NC(=O)[C@H](CCCNC(=N)N)NC(=O)[C@H](CCCNC(=N)N)NC(=O)[C@@H](N)CCCNC(=N)N)[C@@H](C)O)[C@@H](C)O)C(=O)NCC(=O)N[C@@H](CCCNC(=N)N)C(=O)N[C@@H](CCCCN)C(=O)N[C@H](C(=O)N[C@@H](CCC(N)=O)C(=O)N[C@@H](Cc1ccc(O)cc1)C(=O)N[C@@H](CCCCN)C(=O)N[C@@H](CCCCN)C(=O)N[C@@H](Cc1ccc(O)cc1)C(=O)N[C@@H](CC(C)C)C(=O)N[C@@H](CCC(N)=O)C(=O)N[C@@H](CCCCN)C(=O)N[C@@H](CCCCN)C(N)=O)C(C)C [LP3] (H-RRRTCKKEDGTCLGRKVQYKKYLQKK-NH2; N-terminus and C-terminus assumed)
>128 µg/mL: Minimum inhibitory concentration (MIC), Staphylococcus epidermidis [KCTC 1917] ([1]; KCTC 1917, 24 h) | Minimum inhibitory concentration (MIC), Escherichia coli [KCTC 1682] ([2]; KCTC 1682, 24 h) | Minimum inhibitory concentration (MIC), Pseudomonas aeruginosa [KCTC 1637] ([3]; KCTC 1637, 24 h) | Minimum inhibitory concentration (MIC), Staphylococcus aureus [KCTC1621] ([4]; KCTC1621, 24 h)

CC(C)C[C@H](NC(=O)[C@H](Cc1ccc(O)cc1)NC(=O)[C@H](CCCCN)NC(=O)[C@H](CCCNC(=N)N)NC(=O)[C@H](CCCNC(=N)N)NC(=O)[C@H](CCC(N)=O)NC(=O)[C@@H](NC(=O)[C@H](CC(N)=O)NC(=O)[C@H](CCCNC(=N)N)NC(=O)CNC(=O)[C@@H](NC(=O)[C@H](CS)NC(=O)[C@@H]1CCCN1C(=O)[C@H](CCCCN)NC(=O)[C@H](CO)NC(=O)[C@H](CC(N)=O)NC(=O)[C@H](CC(C)C)NC(=O)[C@H](CCCCN)NC(=O)[C@H](CS)NC(=O)[C@H](CCC(N)=O)NC(=O)[C@H](CCCNC(=N)N)NC(=O)[C@H](CCC(=O)O)NC(=O)[C@H](CCCNC(=N)N)NC(=O)[C@@H](NC(=O)[C@H](Cc1c[nH]c2ccccc12)NC(=O)[C@H](Cc1ccc(O)cc1)NC(=O)CNC(=O)[C@@H](NC(=O)[C@@H](NC(=O)[C@H](CC(=O)O)NC(=O)[C@@H](N)CCCCN)C(C)C)[C@@H](C)O)C(C)C)C(C)C)[C@@H](C)O)C(=O)N[C@@H](CC(N)=O)C(=O)N[C@@H](CCCCN)C(N)=O [LP4] (H-KDVTGYWVRERQCKLNSKPCVGRNTQRRKYLNK-NH2; N-terminus and C-terminus assumed)
>128 µg/mL: Minimum inhibitory concentration (MIC), Staphylococcus epidermidis [KCTC 1917] ([1]; KCTC 1917, 24 h) | Minimum inhibitory concentration (MIC), Escherichia coli [KCTC 1682] ([2]; KCTC 1682, 24 h) | Minimum inhibitory concentration (MIC), Pseudomonas aeruginosa [KCTC 1637] ([3]; KCTC 1637, 24 h) | Minimum inhibitory concentration (MIC), Staphylococcus aureus [KCTC1621] ([4]; KCTC1621, 24 h)

QKFNGKSYALAKKMKKRQVKFLNRILDQL [LP19]
>128 µg/mL: Minimum inhibitory concentration (MIC), Staphylococcus epidermidis [KCTC 1917] ([1]; KCTC 1917, 24 h) | Minimum inhibitory concentration (MIC), Escherichia coli [KCTC 1682] ([2]; KCTC 1682, 24 h) | Minimum inhibitory concentration (MIC), Pseudomonas aeruginosa [KCTC 1637] ([3]; KCTC 1637, 24 h) | Minimum inhibitory concentration (MIC), Staphylococcus aureus [KCTC1621] ([4]; KCTC1621, 24 h)

LLAHVSKGFKLSMQKSKKPSLPIKT-NH2 [LP5]
>128 µg/mL: Minimum inhibitory concentration (MIC), Staphylococcus epidermidis [KCTC 1917] ([1]; KCTC 1917, 24 h) | Minimum inhibitory concentration (MIC), Escherichia coli [KCTC 1682] ([2]; KCTC 1682, 24 h) | Minimum inhibitory concentration (MIC), Pseudomonas aeruginosa [KCTC 1637] ([3]; KCTC 1637, 24 h) | Minimum inhibitory concentration (MIC), Staphylococcus aureus [KCTC1621] ([4]; KCTC1621, 24 h)

VLNVQSIMSWNKRVGGMILNLKT [LP11]
>128 µg/mL: Minimum inhibitory concentration (MIC), Staphylococcus epidermidis [KCTC 1917] ([1]; KCTC 1917, 24 h) | Minimum inhibitory concentration (MIC), Escherichia coli [KCTC 1682] ([2]; KCTC 1682, 24 h) | Minimum inhibitory concentration (MIC), Pseudomonas aeruginosa [KCTC 1637] ([3]; KCTC 1637, 24 h) | Minimum inhibitory concentration (MIC), Staphylococcus aureus [KCTC1621] ([4]; KCTC1621, 24 h)

CC[C@H](C)[C@H](NC(=O)[C@H](CO)NC(=O)[C@H](CCCNC(=N)N)NC(=O)[C@H](C)N)C(=O)N[C@@H](CCCCN)C(=O)N[C@@H](CCCCN)C(=O)N[C@H](C(=O)N[C@H](C(=O)N[C@@H](Cc1ccccc1)C(=O)N[C@@H](CO)C(=O)N[C@@H](CO)C(=O)N[C@@H](CO)C(=O)N[C@@H](CO)C(=O)N[C@@H](CCCNC(=N)N)C(=O)N[C@H](C(=O)N[C@@H](CS)C(=O)N1CCC[C@H]1C(=O)N1CCC[C@H]1C(=O)N[C@@H](CC(C)C)C(=O)N[C@@H](CCCCN)C(=O)N[C@@H](CCSC)C(=O)N[C@@H](CC(C)C)C(=O)N[C@@H](CCCCN)C(=O)N[C@@H](CC(C)C)C(=O)N[C@@H](CCCNC(=N)N)C(=O)N1CCC[C@H]1C(=O)N[C@@H](CS)C(=O)N[C@@H](Cc1ccccc1)C(=O)N[C@@H](CCCCN)C(=O)N[C@@H](CCCCN)C(=O)N[C@H](C(=O)N1CCC[C@H]1C(=O)N[C@@H](CCCCN)C(=O)N[C@@H](CC(C)C)C(=O)N[C@@H](CC(=O)O)C(=O)NCC(=O)N[C@@H](CCC(N)=O)C(=O)O)C(C)C)C(C)C)[C@@H](C)CC)C(C)C [LP15] (H-ARSIKKVIFSSSSRVCPPLKMLKLRPCFKKVPKLDGQ-OH; N-terminus and C-terminus assumed)
>128 µg/mL: Minimum inhibitory concentration (MIC), Staphylococcus epidermidis [KCTC 1917] ([1]; KCTC 1917, 24 h) | Minimum inhibitory concentration (MIC), Escherichia coli [KCTC 1682] ([2]; KCTC 1682, 24 h) | Minimum inhibitory concentration (MIC), Pseudomonas aeruginosa [KCTC 1637] ([3]; KCTC 1637, 24 h) | Minimum inhibitory concentration (MIC), Staphylococcus aureus [KCTC1621] ([4]; KCTC1621, 24 h)

KLTPKPAKKVKKVVKF [LP1]
>128 µg/mL: Minimum inhibitory concentration (MIC), Staphylococcus epidermidis [KCTC 1917] ([1]; KCTC 1917, 24 h) | Minimum inhibitory concentration (MIC), Escherichia coli [KCTC 1682] ([2]; KCTC 1682, 24 h) | Minimum inhibitory concentration (MIC), Pseudomonas aeruginosa [KCTC 1637] ([3]; KCTC 1637, 24 h) | Minimum inhibitory concentration (MIC), Staphylococcus aureus [KCTC1621] ([4]; KCTC1621, 24 h)

LNTPRPELSISQRLLIKNFILII-NH2 [LP14]
>128 µg/mL: Minimum inhibitory concentration (MIC), Staphylococcus epidermidis [KCTC 1917] ([1]; KCTC 1917, 24 h) | Minimum inhibitory concentration (MIC), Escherichia coli [KCTC 1682] ([2]; KCTC 1682, 24 h) | Minimum inhibitory concentration (MIC), Pseudomonas aeruginosa [KCTC 1637] ([3]; KCTC 1637, 24 h) | Minimum inhibitory concentration (MIC), Staphylococcus aureus [KCTC1621] ([4]; KCTC1621, 24 h)

MANPVNSIKRIIKKLKKERKCKPNL [LP18]
>128 µg/mL: Minimum inhibitory concentration (MIC), Staphylococcus epidermidis [KCTC 1917] ([1]; KCTC 1917, 24 h) | Minimum inhibitory concentration (MIC), Escherichia coli [KCTC 1682] ([2]; KCTC 1682, 24 h) | Minimum inhibitory concentration (MIC), Pseudomonas aeruginosa [KCTC 1637] ([3]; KCTC 1637, 24 h) | Minimum inhibitory concentration (MIC), Staphylococcus aureus [KCTC1621] ([4]; KCTC1621, 24 h)

PKKVRKSFKKLRNFSNKNSNIYGLPA [LP17]
>128 µg/mL: Minimum inhibitory concentration (MIC), Staphylococcus epidermidis [KCTC 1917] ([1]; KCTC 1917, 24 h) | Minimum inhibitory concentration (MIC), Escherichia coli [KCTC 1682] ([2]; KCTC 1682, 24 h) | Minimum inhibitory concentration (MIC), Pseudomonas aeruginosa [KCTC 1637] ([3]; KCTC 1637, 24 h) | Minimum inhibitory concentration (MIC), Staphylococcus aureus [KCTC1621] ([4]; KCTC1621, 24 h)

Reference: PMC11905058, “Novel Leech Antimicrobial Peptides, Hirunipins: Real‐Time 3D Monitoring of Antimicrobial and Antibiofilm Mechanisms Using Optical Diffraction Tomography” (Advanced Science, 2025)
